Results reported in ChEMBL document CHEMBL1143618, “Discovery of a beta-MSH-derived MC-4R selective agonist” (J Med Chem, 2005).

Experiments:
Melanocortin receptor 4 [1] = target: T1, Melanocortin receptor 4 (Homo sapiens, UniProt P32245); test: Inhibition of [125I]NDP-alpha-MSH binding to melanocortin-4 receptor expressed in HEK293 cells; type: cell-based
Melanocortin receptor 3 [2] = target: T2, Melanocortin receptor 3 (Homo sapiens, UniProt P41968); test: Inhibition of [125I]-NDP-alpha-MSH binding to melanocortin-3 receptor expressed in HEK293 cells; type: cell-based
Melanocortin receptor 4 [3] = target: T1, Melanocortin receptor 4; test: Agonist activity at human Melanocortin-4 receptor as peptide required for 50% maximal cAMP release (n > or =2); type: functional
[4] = target: Melanocyte-stimulating hormone receptor (Homo sapiens, UniProt Q01726); test: Inhibition of [125I]NDP-alpha-MSH binding to melanocortin-1 receptor expressed in HEK293 cells; type: cell-based
Melanocortin receptor 5 = Melanocortin receptor 5 (Homo sapiens, UniProt P33032); test: Inhibition of [125I]NDP-alpha-MSH binding to melanocortin-5 receptor expressed in HEK293 cells; type: cell-based
Melanocortin receptor 4 [5] = target: Melanocortin receptor 4 (Rattus norvegicus, UniProt P70596); test: Binding affinity for rat melanocortin-4 receptor
Melanocortin receptor 3 [6] = target: T2, Melanocortin receptor 3; test: Agonist activity at human Melanocortin-3 receptor as peptide required for 50% maximal cAMP release; type: functional

T1 sequence (P32245 whole entry): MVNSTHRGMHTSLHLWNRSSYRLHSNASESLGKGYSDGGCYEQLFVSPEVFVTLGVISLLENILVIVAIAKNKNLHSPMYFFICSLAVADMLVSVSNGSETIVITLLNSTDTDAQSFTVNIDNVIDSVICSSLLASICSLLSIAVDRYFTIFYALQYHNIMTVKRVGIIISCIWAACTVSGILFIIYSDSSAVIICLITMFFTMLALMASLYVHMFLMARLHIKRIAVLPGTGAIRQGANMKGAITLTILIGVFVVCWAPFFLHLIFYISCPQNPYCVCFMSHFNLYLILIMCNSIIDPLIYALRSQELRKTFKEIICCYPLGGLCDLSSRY
Chain of Melanocortin receptor 5 (P33032 whole entry): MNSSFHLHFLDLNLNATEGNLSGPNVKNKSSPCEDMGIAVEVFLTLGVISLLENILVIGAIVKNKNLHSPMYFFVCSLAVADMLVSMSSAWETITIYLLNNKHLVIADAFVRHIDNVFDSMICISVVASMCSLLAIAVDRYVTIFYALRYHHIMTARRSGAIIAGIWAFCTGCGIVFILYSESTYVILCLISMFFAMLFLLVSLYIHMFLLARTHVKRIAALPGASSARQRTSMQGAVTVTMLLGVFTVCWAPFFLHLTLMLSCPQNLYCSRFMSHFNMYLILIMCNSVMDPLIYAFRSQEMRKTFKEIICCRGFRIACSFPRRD
T2 sequence (P41968 whole entry): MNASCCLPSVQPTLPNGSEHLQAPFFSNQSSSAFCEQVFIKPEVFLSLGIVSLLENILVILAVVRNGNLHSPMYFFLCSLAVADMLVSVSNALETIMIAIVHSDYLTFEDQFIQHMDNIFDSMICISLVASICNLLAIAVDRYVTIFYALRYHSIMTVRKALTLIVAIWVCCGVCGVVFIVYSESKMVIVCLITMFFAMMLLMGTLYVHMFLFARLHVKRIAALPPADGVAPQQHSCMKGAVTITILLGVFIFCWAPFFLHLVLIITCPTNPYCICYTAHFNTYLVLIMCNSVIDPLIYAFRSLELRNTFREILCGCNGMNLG
Chain of Melanocyte-stimulating hormone receptor (Q01726 whole entry): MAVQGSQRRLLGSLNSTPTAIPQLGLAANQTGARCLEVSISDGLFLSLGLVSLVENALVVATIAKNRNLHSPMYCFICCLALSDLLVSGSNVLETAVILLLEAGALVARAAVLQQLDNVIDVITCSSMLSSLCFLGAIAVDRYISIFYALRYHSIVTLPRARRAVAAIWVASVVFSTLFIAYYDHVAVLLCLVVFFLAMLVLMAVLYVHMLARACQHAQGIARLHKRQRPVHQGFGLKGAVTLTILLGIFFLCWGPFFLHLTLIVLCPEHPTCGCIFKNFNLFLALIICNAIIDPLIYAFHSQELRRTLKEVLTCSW
Chain of Melanocortin receptor 4 (Rattus norvegicus, UniProt P70596) (P70596 whole entry): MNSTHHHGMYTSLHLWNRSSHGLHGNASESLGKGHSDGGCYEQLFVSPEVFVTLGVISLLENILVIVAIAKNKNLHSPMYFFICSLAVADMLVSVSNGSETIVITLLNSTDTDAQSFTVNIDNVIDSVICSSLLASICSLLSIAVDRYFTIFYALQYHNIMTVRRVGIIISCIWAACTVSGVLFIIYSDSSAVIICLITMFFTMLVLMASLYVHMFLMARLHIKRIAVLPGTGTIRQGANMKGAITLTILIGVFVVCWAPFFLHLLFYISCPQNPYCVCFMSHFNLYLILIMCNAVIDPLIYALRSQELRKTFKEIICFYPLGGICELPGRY

| Molecule | Ki (Melanocortin receptor 4 [1]) [nM] | Ki (Melanocortin receptor 3 [2]) [nM] | EC50 (Melanocortin receptor 4 [3]) [nM] | Ki [4] [nM] | Ki (Melanocortin receptor 5) [nM] | Ki (Melanocortin receptor 4 [5]) [nM] | EC50 (Melanocortin receptor 3 [6]) [nM] |
| --- | --- | --- | --- | --- | --- | --- | --- |
| CC(=O)N[C@@H](Cc1ccc(O)cc1)C(=O)N[C@@H](CCCN=C(N)N)C(=O)N[C@H]1CSSC[C@@H](C(=O)N[C@@H](CO)C(=O)N2CCC[C@H]2C(=O)N2CCC[C@H]2C(=O)N[C@@H](CCCCN)C(=O)N[C@@H](CC(=O)O)C(N)=O)NC(=O)[C@H](Cc2c[nH]c3ccccc23)NC(=O)[C@H](CCCN=C(N)N)NC(=O)[C@@H](Cc2ccccc2)NC(=O)[C@H](Cc2c[nH]cn2)NC(=O)[C@H](CCC(=O)O)NC1=O | 0.52 | 7.91 | 0.24 | 0.57 | > 500 | – | – |
| CC(=O)N[C@@H](Cc1ccc(O)cc1)C(=O)N[C@@H](CCCNC(=N)N)C(=O)N[C@H]1CSSC[C@@H](C(N)=O)NC(=O)[C@H](Cc2c[nH]c3ccccc23)NC(=O)[C@H](CCCNC(=N)N)NC(=O)[C@@H](Cc2ccccc2)NC(=O)[C@H](Cc2cncn2C)NC(=O)[C@H](CCC(=O)O)NC1=O | 6.6 | > 500 | 0.54 | > 500 | > 500 | – | – |
| CC(=O)N[C@@H](Cc1ccc(O)cc1)C(=O)N[C@@H](CCCNC(=N)N)C(=O)N[C@H]1CSSC[C@@H](C(N)=O)NC(=O)[C@H](Cc2c[nH]c3ccccc23)NC(=O)[C@H](CCCNC(=N)N)NC(=O)[C@@H](Cc2ccccc2)NC(=O)[C@H](Cc2c[nH]cn2)NC(=O)[C@H](CCC(=O)O)NC1=O | 0.77 | – | 0.27 | 17.1 | > 500 | 0.52 | – |
| CSCC[C@H](NC(=O)[C@H](CCCNC(=N)N)NC(=O)[C@H](Cc1ccc(O)cc1)NC(C)=O)C(=O)N[C@@H](CCC(=O)O)C(=O)N[C@@H](Cc1cnc[nH]1)C(=O)N[C@H](Cc1ccccc1)C(=O)N[C@@H](CCCNC(=N)N)C(=O)N[C@@H](Cc1c[nH]c2ccccc12)C(=O)NCC(N)=O | 0.55 | 1.44 | 0.16 | 0.21 | 0.84 | – | – |
| CC(=O)N[C@H](CCCNC(=N)N)C(=O)N[C@H]1CSSC[C@@H](C(N)=O)NC(=O)[C@H](Cc2c[nH]c3ccccc23)NC(=O)[C@H](CCCNC(=N)N)NC(=O)[C@@H](Cc2ccccc2)NC(=O)[C@H](Cc2c[nH]cn2)NC(=O)[C@H](CCC(=O)O)NC1=O | – | 56.8 | – | 16.8 | > 500 | 0.39 | 1.61 |
| CC(=O)N[C@H]1CSSC[C@@H](C(N)=O)NC(=O)[C@H](Cc2c[nH]c3ccccc23)NC(=O)[C@H](CCCNC(=N)N)NC(=O)[C@@H](Cc2ccccc2)NC(=O)[C@H](Cc2c[nH]cn2)NC(=O)[C@H](CCC(=O)O)NC1=O | – | – | – | 67.1 | > 500 | – | – |
| CC(=O)N[C@@H](Cc1ccc(O)cc1)C(=O)N[C@@H](CCCNC(=N)N)C(=O)N[C@H]1CSSC[C@@H](C(N)=O)NC(=O)[C@H](Cc2c[nH]c3ccccc23)NC(=O)[C@H](CCCNC(=N)N)NC(=O)[C@@H](Cc2ccc(F)cc2)NC(=O)[C@H](Cc2c[nH]cn2)NC(=O)[C@H](CCC(=O)O)NC1=O | 0.28 | 15.9 | 0.12 | 9.91 | 239 | – | – |
| CC(=O)N[C@@H](CCCNC(=N)N)C(=O)N[C@H]1CSSC[C@@H](C(N)=O)NC(=O)[C@H](Cc2c[nH]c3ccccc23)NC(=O)[C@H](CCCNC(=N)N)NC(=O)[C@@H](Cc2ccccc2)NC(=O)[C@H](Cc2c[nH]cn2)NC(=O)[C@H](CCC(=O)O)NC1=O | – | 33.8 | – | 10.3 | > 500 | – | 0.68 |
| CC(=O)N[C@@H](Cc1ccc(O)cc1)C(=O)N[C@@H](CCCN=C(N)N)C(=O)N[C@H]1CSSC[C@@H](C(N)=O)NC(=O)[C@H](Cc2c[nH]c3ccccc23)NC(=O)[C@H](CCCN=C(N)N)NC(=O)[C@H](Cc2ccccc2)NC(=O)[C@H](Cc2c[nH]cn2)NC(=O)[C@H](CCC(=O)O)NC1=O | 30.5 | > 500 | 5.24 | 147 | > 500 | – | – |
| CC(=O)N[C@@H](Cc1ccc(O)cc1)C(=O)N[C@@H](CCCNC(N)=O)C(=O)N[C@H]1CSSC[C@@H](C(N)=O)NC(=O)[C@H](Cc2c[nH]c3ccccc23)NC(=O)[C@H](CCCNC(=N)N)NC(=O)[C@@H](Cc2ccccc2)NC(=O)[C@H](Cc2c[nH]cn2)NC(=O)[C@H](CCC(=O)O)NC1=O | 2.54 | 313 | 0.79 | 49.4 | > 500 | – | – |
| CC(=O)N[C@@H](Cc1ccc(O)cc1)C(=O)N[C@@H](CCCCN)C(=O)N[C@H]1CSSC[C@@H](C(N)=O)NC(=O)[C@H](Cc2c[nH]c3ccccc23)NC(=O)[C@H](CCCNC(=N)N)NC(=O)[C@@H](Cc2ccccc2)NC(=O)[C@H](Cc2c[nH]cn2)NC(=O)[C@H](CCC(=O)O)NC1=O | 1.22 | – | 0.1 | 15.8 | > 500 | – | – |
| CC(=O)N[C@@H](Cc1ccc(O)cc1)C(=O)N[C@@H](CCCN=C(N)N)C(=O)N[C@H]1CSSC[C@@H](C(N)=O)NC(=O)[C@H](Cc2c[nH]c3ccccc23)NC(=O)[C@H](CCCN=C(N)N)NC(=O)[C@@H](Cc2ccc3ccccc3c2)NC(=O)[C@H](Cc2c[nH]cn2)NC(=O)[C@H](CCC(=O)O)NC1=O | 0.3 | 6.84 | 0.65 | 121 | 37.8 | – | – |
| CSCC[C@H](NC(=O)[C@H](CCCN=C(N)N)NC(=O)[C@H](Cc1ccc(O)cc1)NC(=O)[C@@H]1CCCN1C(=O)CNC(=O)[C@H](CCC(=O)O)NC(=O)[C@H](CC(=O)O)NC(=O)[C@H](CCCCN)NC(=O)[C@H](CCCCN)NC(=O)[C@H](CCC(=O)O)NC(=O)[C@H](C)N)C(=O)N[C@@H](CCC(=O)O)C(=O)N[C@@H](Cc1c[nH]cn1)C(=O)N[C@@H](Cc1ccccc1)C(=O)N[C@@H](CCCN=C(N)N)C(=O)N[C@@H](Cc1c[nH]c2ccccc12)C(=O)NCC(=O)N[C@@H](CO)C(=O)N1CCC[C@H]1C(=O)N1CCC[C@H]1C(=O)N[C@@H](CCCCN)C(=O)N[C@@H](CC(=O)O)C(=O)O | – | 10.6 | – | 0.89 | 76.9 | – | – |
| CSCC[C@H](NC(=O)[C@H](CCCNC(=N)N)NC(=O)[C@H](Cc1ccc(O)cc1)NC(C)=O)C(=O)N[C@@H](CCC(=O)O)C(=O)N[C@@H](Cc1cnc[nH]1)C(=O)N[C@H](Cc1ccccc1)C(=O)N[C@@H](CCCNC(=N)N)C(=O)N[C@@H](Cc1c[nH]c2ccccc12)C(=O)NCC(=O)N[C@@H](CO)C(=O)N1CCC[C@H]1C(=O)N1CCC[C@H]1C(=O)N[C@@H](CCCCN)C(=O)N[C@@H](CC(=O)O)C(N)=O | 0.27 | 0.11 | 0.56 | 0.09 | 0.26 | – | – |
| CC(=O)N[C@@H](Cc1ccc(O)cc1)C(=O)N[C@@H](CCCNC(=N)N)C(=O)N[C@H]1CSSC[C@@H](C(N)=O)NC(=O)[C@H](Cc2c[nH]c3ccccc23)NC(=O)[C@H](CCCNC(=N)N)NC(=O)[C@@H](Cc2ccc(Cl)cc2)NC(=O)[C@H](Cc2c[nH]cn2)NC(=O)[C@H](CCC(=O)O)NC1=O | 0.14 | 3.12 | 0.06 | 8.22 | 42.2 | – | – |
| CSC[C@H](NC(=O)[C@H](Cc1c[nH]c2ccccc12)NC(=O)[C@H](CCCNC(=N)N)NC(=O)[C@@H](Cc1ccccc1)NC(=O)[C@H](Cc1cnc[nH]1)NC(=O)[C@H](CCC(=O)O)NC(=O)[C@H](CSC)NC(=O)[C@H](CCCNC(=N)N)NC(=O)[C@H](Cc1ccc(O)cc1)NC(C)=O)C(N)=O | 13.2 | 166 | 0.92 | 2.73 | 62.1 | – | – |
| H-GPYRMEHFRWGSPPKD-NH2 | 5.28 | 9.23 | 0.67 | 0.51 | 24.8 | – | – |
